Data reported in ChEMBL document CHEMBL1201862, “PubChem BioAssay data set” (2004).
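In this assay, cells in 96-well plates receive the compound at five concentrations for 48 hours. Endpoints are linearly interpolated between the surrounding concentrations. At the GI50, growth is halved.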 Activity calls are given as the source filed them. Rule as the data show it: active = GI50 up to about 1.1 µM and inactive = higher.

Columns and labels:
Assay in all cases: NCI anticancer screen, dose series, 48 h
[1] = test system: HCT-116
[2] = test system: OVCAR-4
[3] = test system: HL-60
[4] = test system: SF-539
[5] = test system: NCI-H226
[6] = test system: ACHN
[7] = test system: KM12
[8] = test system: SN12C
[9] = test system: SW-620
[10] = test system: NCI-H460
[11] = test system: SF-268
[12] = test system: RXF 393
[13] = test system: A498
[14] = test system: T47D
[15] = test system: CAKI-1
[16] = test system: LOX IMVI
[17] = test system: NCI-H23
[18] = test system: Malme-3M
[19] = test system: OVCAR-5
[20] = test system: MDA-MB-231

SMILES | GI50 [1] | GI50 [2] | GI50 [3] | GI50 [4] | GI50 [5] | GI50 [6] | GI50 [7] | GI50 [8] | GI50 [9] | GI50 [10] | GI50 [11] | GI50 [12] | GI50 [13] | GI50 [14] | GI50 [15] | GI50 [16] | GI50 [17] | GI50 [18] | GI50 [19] | GI50 [20]
COc1ccc(NC(=O)CC(=O)NNC(Sc2ccccc2)c2cc(/N=N/c3ccc(Br)cc3)ccc2O)cc1 (centres undefined) | 4.81 µM (inactive) | 9.12 µM (inactive) | 3.61 µM (inactive) | > 10 µM (inactive) | 2.74 µM (inactive) | > 10 µM (inactive) | > 10 µM (inactive) | 7.52 µM (inactive) | > 10 µM (inactive) | > 10 µM (inactive) | > 10 µM (inactive) | > 10 µM (inactive) | > 10 µM (inactive) | > 10 µM (inactive) | > 10 µM (inactive) | > 10 µM (inactive) | > 10 µM (inactive) | > 10 µM (inactive) | > 10 µM (inactive) | > 10 µM (inactive)
CSC1=NC(C(N)=O)C(N)N1C (centres undefined) | > 100 µM (inactive) | > 100 µM (inactive) | > 100 µM (inactive) | > 100 µM (inactive) | > 100 µM (inactive) | > 100 µM (inactive) | > 100 µM (inactive) | > 100 µM (inactive) | > 100 µM (inactive) | > 100 µM (inactive) | > 100 µM (inactive) | > 100 µM (inactive) | > 100 µM (inactive) | > 100 µM (inactive) | > 100 µM (inactive) | > 100 µM (inactive) | > 100 µM (inactive) | > 100 µM (inactive) | > 100 µM (inactive) | 38.6 µM (inactive)
Cc1cc(C)c2c(=N)c3ccccc3n(CCCCCCO)c2n1 | 3.11 µM (inactive) | 2.45 µM (inactive) | 2.9 µM (inactive) | 2.33 µM (inactive) | 3.87 µM (inactive) | 1.36 µM (inactive) | 3.94 µM (inactive) | 1.95 µM (inactive) | 4.17 µM (inactive) | 1.69 µM (inactive) | 3.62 µM (inactive) | 3.21 µM (inactive) | 10.5 µM (inactive) | 2.94 µM (inactive) | 2.48 µM (inactive) | 1.91 µM (inactive) | 2.15 µM (inactive) | 2.63 µM (inactive) | 4.91 µM (inactive) | 3.68 µM (inactive)
C/C(=N\Nc1nc2ccccc2n1C)c1ccc2ccccc2n1 | 0.791 µM (active) | 0.19 µM (active) | 0.774 µM (active) | 4.53 µM (inactive) | 1.87 µM (inactive) | – | 0.528 µM (active) | 1.82 µM (inactive) | 0.35 µM (active) | 2.56 µM (inactive) | 2.87 µM (inactive) | 5.2 µM (inactive) | 3.69 µM (inactive) | < 0.01 µM (active) | 0.611 µM (active) | 1.64 µM (inactive) | 4.41 µM (inactive) | 1.59 µM (inactive) | 1.53 µM (inactive) | 0.916 µM (active)
CC1CC(C)C2=NOS3=C2C1=NO3 (centres undefined) | > 100 µM (inactive) | > 100 µM (inactive) | > 100 µM (inactive) | > 100 µM (inactive) | > 100 µM (inactive) | > 100 µM (inactive) | > 100 µM (inactive) | > 100 µM (inactive) | > 100 µM (inactive) | > 100 µM (inactive) | > 100 µM (inactive) | > 100 µM (inactive) | 12.9 µM (inactive) | > 100 µM (inactive) | > 100 µM (inactive) | > 100 µM (inactive) | > 100 µM (inactive) | 89.7 µM (inactive) | > 100 µM (inactive) | > 100 µM (inactive)
O=[As](O)(O)c1ccc(Cc2ccc([As](=O)(O)O)cc2)cc1 | 0.895 µM (active) | 1.9 µM (inactive) | 1.09 µM (active) | 0.193 µM (active) | 3.78 µM (inactive) | 1.03 µM (active) | 1.91 µM (inactive) | 0.64 µM (active) | 0.27 µM (active) | 0.91 µM (active) | 0.434 µM (active) | 0.413 µM (active) | 2.12 µM (inactive) | 0.312 µM (active) | 0.955 µM (active) | 0.336 µM (active) | 0.773 µM (active) | 1.2 µM (inactive) | 2.34 µM (inactive) | 1.01 µM (active)
COC1CC(C)([N+](=O)[O-])C(O)C(C)O1 (centres undefined) | > 100 µM (inactive) | > 100 µM (inactive) | > 100 µM (inactive) | > 100 µM (inactive) | > 100 µM (inactive) | > 100 µM (inactive) | > 100 µM (inactive) | > 100 µM (inactive) | > 100 µM (inactive) | > 100 µM (inactive) | > 100 µM (inactive) | > 100 µM (inactive) | > 100 µM (inactive) | > 100 µM (inactive) | > 100 µM (inactive) | > 100 µM (inactive) | > 100 µM (inactive) | > 100 µM (inactive) | > 100 µM (inactive) | > 100 µM (inactive)
COc1cc(N(C)C)ccc1C=c1c2ccccc2n2c1cc(-c1ccccc1)[n+]2C | 0.175 µM (active) | 0.453 µM (active) | 0.149 µM (active) | 0.0813 µM (active) | 0.518 µM (active) | 0.29 µM (active) | 0.17 µM (active) | 0.296 µM (active) | 0.276 µM (active) | 0.294 µM (active) | 0.495 µM (active) | 0.345 µM (active) | 1.65 µM (inactive) | 0.266 µM (active) | 0.472 µM (active) | 0.308 µM (active) | 0.237 µM (active) | 1.02 µM (active) | 0.566 µM (active) | 0.332 µM (active)
CCCCCC1=CC(=O)C1(Cl)Cl | 11.9 µM (inactive) | 15.9 µM (inactive) | 1.83 µM (inactive) | 12.4 µM (inactive) | 15.3 µM (inactive) | 8.3 µM (inactive) | 13.2 µM (inactive) | 20.3 µM (inactive) | 11.9 µM (inactive) | 19.6 µM (inactive) | 14.7 µM (inactive) | 12.7 µM (inactive) | 20.4 µM (inactive) | 8.24 µM (inactive) | 8.3 µM (inactive) | 6.52 µM (inactive) | 14.3 µM (inactive) | 9.55 µM (inactive) | 15.4 µM (inactive) | 9.93 µM (inactive)
CC(=O)Oc1ccc(/C=C/C(=O)OCCOC(=O)/C=C/c2ccc(OC(C)=O)c(OC(C)=O)c2)cc1OC(C)=O | 4.66 µM (inactive) | 4.63 µM (inactive) | 3.95 µM (inactive) | 2.72 µM (inactive) | 14.9 µM (inactive) | 4.05 µM (inactive) | 10.1 µM (inactive) | 11.7 µM (inactive) | 9.38 µM (inactive) | 11.9 µM (inactive) | 8.43 µM (inactive) | 7.76 µM (inactive) | 22 µM (inactive) | 13 µM (inactive) | 3.26 µM (inactive) | 4.59 µM (inactive) | 4.26 µM (inactive) | 12.4 µM (inactive) | 14.6 µM (inactive) | 14.5 µM (inactive)
N=C(N)Nc1ccc(-c2ccc(NC(=N)N)cc2)cc1 | 28.8 µM (inactive) | 60.7 µM (inactive) | 40.9 µM (inactive) | 20.9 µM (inactive) | 15.7 µM (inactive) | 45.3 µM (inactive) | 33.5 µM (inactive) | 12.4 µM (inactive) | 62.5 µM (inactive) | 17.1 µM (inactive) | 37.3 µM (inactive) | 22.4 µM (inactive) | 6.95 µM (inactive) | 44.4 µM (inactive) | 41.1 µM (inactive) | 50.8 µM (inactive) | 35.6 µM (inactive) | 19 µM (inactive) | 11.9 µM (inactive) | > 100 µM (inactive)
CC(=O)O[C@H]1CCC2[C@@H]3CCC4NC(=O)C(C#N)C[C@]4(C)C3CC[C@@]21C (some centres undefined) | > 10 µM (inactive) | > 10 µM (inactive) | > 10 µM (inactive) | > 10 µM (inactive) | > 10 µM (inactive) | > 10 µM (inactive) | > 10 µM (inactive) | > 10 µM (inactive) | > 10 µM (inactive) | > 10 µM (inactive) | > 10 µM (inactive) | > 10 µM (inactive) | > 10 µM (inactive) | > 10 µM (inactive) | > 10 µM (inactive) | > 10 µM (inactive) | > 10 µM (inactive) | > 10 µM (inactive) | > 10 µM (inactive) | > 10 µM (inactive)
COc1cccc(/C=N/[N+](C)(C)C)c1O | > 10 µM (inactive) | > 10 µM (inactive) | > 10 µM (inactive) | > 10 µM (inactive) | > 10 µM (inactive) | > 10 µM (inactive) | > 10 µM (inactive) | > 10 µM (inactive) | > 10 µM (inactive) | > 10 µM (inactive) | > 10 µM (inactive) | > 10 µM (inactive) | > 10 µM (inactive) | > 10 µM (inactive) | > 10 µM (inactive) | > 10 µM (inactive) | 2.22 µM (inactive) | > 10 µM (inactive) | > 10 µM (inactive) | > 10 µM (inactive)
COc1cc(-c2[nH]ccc2Cl)oc1C1=C2N=C3C=C2C(C(C)C)C1CCCCCCCC3 (centres undefined) | 0.307 µM (active) | 0.863 µM (active) | 0.299 µM (active) | 0.869 µM (active) | 1.06 µM (active) | 0.971 µM (active) | 0.476 µM (active) | 0.94 µM (active) | 0.386 µM (active) | 0.319 µM (active) | 1.08 µM (active) | 0.904 µM (active) | 2.16 µM (inactive) | 0.272 µM (active) | 2 µM (inactive) | 0.167 µM (active) | 0.738 µM (active) | 1.09 µM (active) | 0.735 µM (active) | 0.279 µM (active)
